# Test results reported in patent US20230107216A1, “PANTETHEINE DERIVATIVES AND USES THEREOF” (Comet Therapeutics, Inc., priority 2018, published 2023).
# Where two headings read alike, the source gives them in different places.
# Key:
# [1] = test system: primary fibroblasts (healthy controls and PA, MMA, BCKDK, PDH, VLCAD, LS, PC, GA, VLCFA, KSS, FXN, HD); assay: Measurement of ROS (H2DCFDA) in primary fibroblasts; format: cell-based, human; conditions: procedure Example 812; for inhibition at 10 µM: Homo sapiens
# How it was run: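 Patient and healthy-control primary fibroblasts switched to supplemented DMEM 24 h before assay, then treated with compound (10 μM) plus H2DCFDA (22 μM) for 2 h (PA, MMA lines) or 24 h (other lines). Kinetic fluorescence at 492/527 nm over 60 min; only live cells analysed.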
# HepG2 cells = assay: Glucose uptake (Glucose Uptake-Glo); format: cell-based; conditions: Homo sapiens, read-out: % increase in Glucose Uptake
# [2] = test system: Propionic Acidemia (PA) primary fibroblasts GM00371; assay: Mitochondrial respiration, XFe96 Extracellular Flux Analyzer (OCR/ECAR), PA fibroblasts GM00371; format: cell-based; conditions: Homo sapiens, Fibroblast
# [3] = Fibroblast, BCKD GM00612, Assay Condition A, read-out: Decreased ROS by at least 10%
# [4] = Fibroblast, VLCFA GM13262, Assay Condition C, read-out: Decreased ROS by at least 30%
# [5] = FXN GM04078, Assay Condition C, read-out: Decreased ROS by at least 10%
# [6] = FXN GM04078, Assay Condition C, read-out: Decreased ROS by at least 30%
# [7] = Fibroblast, PDH GM01503, Assay Condition C, read-out: Decreased ROS by at least 10%
# [8] = Fibroblast, PDH GM01503, Assay Condition C, read-out: Decreased ROS by at least 30%
# [9] = assay condition A (10 mM glucose, 2 mM L-glutamine, 1 mM pyruvate, 10% FBS), read-out: Increase in Spare Capacity AUC
# [10] = assay condition C (10 mM glucose, 10% FBS), read-out: Increase in Maximal Respiratory Capacity AUC
# [11] = assay condition D (1 mM glucose, 10% FBS), read-out: Increase in Spare Capacity AUC
# [12] = assay condition A (10 mM glucose, 2 mM L-glutamine, 1 mM pyruvate, 10% FBS), read-out: Increase in Maximal Respiratory Capacity AUC
# [13] = Fibroblast, NPC1 GM22879, Assay Condition C, read-out: Decreased ROS by at least 10%
# [14] = Fibroblast, BCKD GM00649, Assay Condition C, read-out: Decreased ROS by at least 10%
# [15] = Fibroblast, BCKD GM00649, Assay Condition C, read-out: Decreased ROS by at least 30%
smiles,measurement,setting,value
"CC(C)(COC(=O)CCC(=O)O)[C@@H](O)C(=O)NCCC(=O)NCCS [Compound 1310, (R)-4-(3-hydroxy-4-((3-((2-mercaptoethyl)amino)-3-oxopropyl)amino)-2,2-dimethyl-4-oxobutoxy)-4-oxobutanoic acid]",inhibition at 10 µM,[1]; [3],≥ 10%
same,inhibition at 10 µM,[1]; [4],≥ 30%
"CC(C)C(=O)CC(=O)SCCNC(=O)CCNC(=O)[C@H](O)C(C)(C)CO [Compound 1239, (R)—S-(2-(3-(2,4-dihydroxy-3,3-dimethylbutanamido)propanamido)ethyl) 4-methyl-3-oxopentanethioate]",inhibition at 10 µM,[1]; [3],≥ 10%
same,inhibition at 10 µM,[1]; [4],≥ 30%
same,inhibition at 10 µM,[1]; [5],≥ 10%
same,inhibition at 10 µM,[1]; [6],≥ 30%
"C[C@H](O)CC(=O)CC(=O)SCCNC(=O)CCNC(=O)[C@H](O)C(C)(C)CO [Compound 1306, (2R)-2,4-dihydroxy-N-[2-[(2-[[(5S)-5-hydroxy-3-oxohexanoyl]sulfanyl]ethyl)carbamoyl]ethyl]-3,3-dimethylbutanamide]",Decreased ROS by at least 30%,"[1]; Healthy GM05659, Assay Condition A",≥ 30%
same,Decreased ROS by at least 30%,"[1]; Healthy GM23974, Assay Condition A",≥ 30%
same,inhibition at 10 µM,[1]; [7],≥ 10%
same,inhibition at 10 µM,[1]; [8],≥ 30%
same,inhibition at 10 µM,[1]; [5],≥ 10%
same,inhibition at 10 µM,[1]; [6],≥ 30%
same,activation at 10 µM,HepG2 cells,≥ 30%
COC(=O)CC[C@H](N)C(=O)SCCNC(=O)CCNC(=O)[C@H](O)C(C)(C)CO [Compound 411],activation at 10 µM,[2]; [9],≥ 30%
same,inhibition at 10 µM,[1]; [3],≥ 10%
same,inhibition at 10 µM,[1]; [4],≥ 30%
same,inhibition at 10 µM,[1]; [5],≥ 10%
same,inhibition at 10 µM,[1]; [6],≥ 30%
"CC(C)(CO)[C@@H](OC(=O)CCC(=O)O)C(=O)NCCC(=O)NCCS [Compound 1311, (R)-4-((4-hydroxy-1-((3-((2-mercaptoethyl)amino)-3-oxopropyl)amino)-3,3-dimethyl-1-oxobutan-2-yl)oxy)-4-oxobutanoic acid]",inhibition at 10 µM,[1]; [3],≥ 10%
same,inhibition at 10 µM,[1]; [4],≥ 30%
same,inhibition at 10 µM,[1]; [5],≥ 10%
same,inhibition at 10 µM,[1]; [6],≥ 30%
"CC(C)(CO)[C@@H](O)C(=O)NCCC(=O)NCCSC(=O)CCC(=O)O [Compound 1, (R)-4-((2-(3-(2,4-dihydroxy-3,3-dimethylbutanamido)propanamido)ethyl)thio)-4-oxobutanoic acid]",activation at 50 µM,[2]; [10],≥ 10%
same,activation at 10 µM,[2]; [11],≥ 10%
same,activation at 10 µM,HepG2 cells,≥ 30%
"COC(=O)CCC(=O)SCCNC(=O)CCNC(=O)[C@H](OC(=O)CNC(C)=O)C(C)(C)CO [Compound 1298, methyl 4-[(2-[3-[(2R)-2-[(2-acetamidoacetyl)oxy]-4-hydroxy-3,3-dimethylbutanamido]propanamido]ethyl)sulfanyl]-4-oxobutanoate]",activation at 10 µM,[2]; [9],≥ 30%
same,activation at 50 µM,[2]; [9],≥ 50%
same,activation at 10 µM,[2]; [11],≥ 30%
same,activation at 50 µM,"[2]; assay condition D (1 mM glucose, 10% FBS), read-out: Increase in Maximal Respiratory Capacity AUC",≥ 10%
same,activation at 50 µM,HepG2 cells; 50 uM,≥ 20%
"CC(=O)SCCNC(=O)CCNC(=O)[C@H](O)C(C)(C)COC(=O)[C@H](C)N [Compound 502, (3R)-3-[(2-[[2-(acetylsulfanyl)ethyl]carbamoyl]ethyl)carbamoyl]-3-hydroxy-2,2-dimethylpropyl (2S)-2-aminopropanoate]",activation at 10 µM,[2]; [12],≥ 30%
same,activation at 50 µM,[2]; [12],≥ 10%
"COC(=O)/C=C/C(=O)SCCNC(=O)CCNC(=O)[C@H](O)C(C)(C)COP(=O)(O)O [Compound 73, methyl (R,E)-4-((2-(3-(2-hydroxy-3,3-dimethyl-4-(phosphonooxy)butanamido)propanamido)ethyl)thio)-4-oxobut-2-enoate]",inhibition at 10 µM,[1]; [13],≥ 10%
"CC(C)(CO)[C@@H](O)C(=O)NCCC(=O)NCCSC(=O)[C@@H](N)Cc1ccc(O)c(O)c1 [Compound 371, (2R)—N-[2-[(2-[[(2S)-2-amino-3-(3,4-dihydroxyphenyl)propanoyl]sulfanyl]ethyl)carbamoyl]ethyl]-2,4-dihydroxy-3,3-dimethylbutanamide]",activation at 10 µM,HepG2 cells,≥ 30%
"CC(C)(CO)[C@@H](O)C(=O)NCCC(=O)NCCSC(=O)CCCO [Compound 1304, (2R)-2,4-dihydroxy-N-[2-([2-[(4-hydroxybutanoyl)sulfanyl]ethyl]carbamoyl)ethyl]-3,3-dimethylbutanamide]",inhibition at 10 µM,[1]; [7],≥ 10%
same,inhibition at 10 µM,[1]; [8],≥ 30%
same,activation at 10 µM,HepG2 cells,≥ 20%
COC(=O)C(C)C(=O)SCCNC(=O)CCNC(=O)[C@H](O)C(C)(C)CO (some centres unmarked) [Compound 405],inhibition at 10 µM,[1]; [14],≥ 10%
same,inhibition at 10 µM,[1]; [15],≥ 30%
"CC(C)(CO)[C@@H](O)C(=O)NCCC(=O)NCCSC(CC(=O)OCC[N+](C)(C)C)C(=O)O (stereo partly drawn) [Compound 51, [2-([3-carboxy-3-[(2-[3-[(2R)-2,4-dihydroxy-3,3-dimethylbutanamido]propanamido]ethyl)sulfanyl]propanoyl]oxy)ethyl]trimethylazanium]",activation at 50 µM,[2]; [10],≥ 10%
same,activation at 10 µM,HepG2 cells,≥ 30%
COC(=O)CCC(=O)SCCNC(=O)CCNC(=O)[C@H](O)C(C)(C)COC(C)=O [Compound 138],inhibition at 10 µM,[1]; [13],≥ 10%
same,inhibition at 10 µM,"[1]; Fibroblast, NPC1 GM22879, Assay Condition C, read-out: Decreased ROS by at least 30%",≥ 30%
same,inhibition at 10 µM,[1]; [5],≥ 10%
"COC(=O)CCC(=O)SCCNC(=O)CCNC(=O)[C@H](O)C(C)(C)CO [Compound 4, Methyl (R)-4-((2-(3-(2,4-dihydroxy-3,3-dimethylbutanamido)propanamido)ethyl)thio)-4-oxobutanoate]",inhibition at 10 µM,[1]; [14],≥ 10%
same,inhibition at 10 µM,[1]; [15],≥ 30%
"CC(=O)SCCNC(=O)CCNC(=O)[C@H](O)C(C)(C)COC(=O)CN [Compound 560, (3R)-3-[(2-[[2-(acetylsulfanyl)ethyl]carbamoyl]ethyl)carbamoyl]-3-hydroxy-2,2-dimethylpropyl 2-aminoacetate]",inhibition at 10 µM,[1]; [5],≥ 10%
"C[C@H](CC(=O)SCCNC(=O)CCNC(=O)[C@H](O)C(C)(C)CO)OC(=O)CCC(=O)O [Compound 1243, 4-{[(2R)-4-[(2-{3-[(2R)-2,4-dihydroxy-3,3-dimethylbutanamido]propanamido}ethyl)sulfanyl]-4-oxobutan-2-yl]oxy}-4-oxobutanoic acid]",inhibition at 10 µM,[1]; [14],≥ 10%
same,inhibition at 10 µM,[1]; [15],≥ 30%
same,inhibition at 10 µM,[1]; [5],≥ 10%
same,inhibition at 10 µM,[1]; [6],≥ 30%
"CCCCCCC(=O)SCCNC(=O)CCNC(=O)[C@H](O)C(C)(C)CO [Compound 372, (2R)—N-(2-[[2-(heptanoylsulfanyl)ethyl]carbamoyl]ethyl)-2,4-dihydroxy-3,3-dimethylbutanamide]",activation at 50 µM,[2]; [10],≥ 10%
same,inhibition at 10 µM,[1]; [5],≥ 10%
same,inhibition at 10 µM,[1]; [6],≥ 30%
"CC1(CC(=O)SCCNC(=O)CCNC(=O)[C@H](O)C(C)(C)CO)OCCO1 [Compound 1252, (R)—S-(2-(3-(2,4-dihydroxy-3,3-dimethylbutanamido)propanamido)ethyl)-2-(2-methyl-1,3-dioxolan-2-yl)ethanethioate]",inhibition at 10 µM,[1]; [7],≥ 10%
same,inhibition at 10 µM,[1]; [8],≥ 30%
"CC(C(=O)SCCNC(=O)CCNC(=O)[C@H](O)C(C)(C)CO)[C@@H](C)O (stereo partly drawn) [Compound 1244, (2R)-2,4-dihydroxy-N-{2-[(2-{[(3R)-3-hydroxy-2-methylbutanoyl]sulfanyl}ethyl)carbamoyl]ethyl}-3,3-dimethylbutanamide]",inhibition at 10 µM,[1]; [3],≥ 10%
same,inhibition at 10 µM,[1]; [4],≥ 30%
"CC(C)=CC(=O)SCCNC(=O)CCNC(=O)[C@H](O)C(C)(C)CO [Compound 37, S-2-{3-[(R)-2,4-dihydroxy-3,3-dimethylbutyrylamino]propionylamino}ethyl 3-methyl-2-butenethioate]",inhibition at 10 µM,"[1]; Fibroblast, VLCFA GM13262, Assay Condition C, read-out: Decreased ROS by at least 10%",≥ 10%
same,inhibition at 10 µM,[1]; [4],≥ 30%
CC(C)(CO)[C@@H](O)C(=O)NCCC(=O)NCCSC(=O)CC(O)C(=O)O (some centres unmarked) [Compound 39],inhibition at 10 µM,"[1]; Fibroblast, VLCAD GM17475, Assay Condition C, read-out: Decreased ROS by at least 10%",≥ 10%
"CCC(C)C(=O)CC(=O)SCCNC(=O)CCNC(=O)[C@H](O)C(C)(C)CO (stereo partly drawn) [Compound 1240, S-(2-(3-((R)-2,4-dihydroxy-3,3-dimethylbutanamido)propanamido)ethyl) 4-methyl-3-oxohexanethioate]",inhibition at 10 µM,[1]; [3],≥ 10%
same,inhibition at 10 µM,[1]; [4],≥ 30%
same,inhibition at 10 µM,[1]; [5],≥ 10%
same,inhibition at 10 µM,[1]; [6],≥ 30%
